Converted amounts (≈) assume the structure as drawn. Read-outs that look alike come from different tables or passages of the source.
What was measured:
[1] = tested on: HCT-116 human colon cancer cells; test: IC50 assay (concentration-cell number study); assay type: cell-based
Description: Concentration-cell number studies (IC50 assay) were carried out utilizing 12 separate compositions (numbered 1-12 below) against 13 different cancer cell lines (see Table 6). […] On day 3, cells are exposed to different concentrations of the drug. Flasks are incubated for 120 h (5 d) in a 5% CO2 incubator at 37° C. and the cells harvested with trypsin, washed once with Hanks Balanced Salt Solution (HBSS) and re-suspended in HBSS containing 0.08% Trypan Blue. Both viable and dead cells are counted using a hemocytometer. Viable cell numbers are normalized to an untreated control and plotted as a function of drug concentration. The IC50 value is determined using Prism 4.0.

[2] = ORAC total (Brunswick Test # A103); assay type: biochemical; conditions: for TOTAL ORAC SCORE: Cantron oral liquid scores converted from TE/L to TE/g
Description: (§1) Peroxyl radical scores are measured in the ORAC test (Oxygen Radical Absorption Capacity). Hydroxyl Radicals are tested in the HORAC test (Hydroxyl Radical Absorption Capacity). Peroxynitrite Radicals are tested in the NORAC test (Peroxynitrite Radical Absorption Capacity). Superoxide Radicals are measured in the SOD test (Superoxide Radical Absorption Capacity). The ORAC test measures the antioxidant activity against peroxyl radicals by determining how many peroxyl free radicals can be absorbed by a given antioxidant as compared to the vitamin E analog-Trolox. The result is expressed as micromoles of Trolox equivalent per liter (TE/L) for liquid formulations and Trolox equivalent per gram (TE/g) for dry powders. Brunswick tested the Applicant's compounds for antioxidant activity against both hydrophilic and lipophilic peroxyl radicals as expressed in the ORAC total (see table 7).

[3] = ORAC hydro (Brunswick Test # A101); assay type: biochemical; conditions: for ORAC hydro SCORE: Cantron oral liquid scores converted from TE/L to TE/g
Description: as §1

[4] = ORAC lipo (Brunswick Test # A102); assay type: biochemical; conditions: for ORAC lipo SCORE: Cantron oral liquid scores converted from TE/L to TE/g
Description: as §1

[5] = HORAC (Brunswick Test # A104); assay type: biochemical; conditions: for HORAC SCORE: Cantron oral liquid scores converted from CAE/L to CAE/g
Description: Peroxyl radical scores are measured in the ORAC test (Oxygen Radical Absorption Capacity). Hydroxyl Radicals are tested in the HORAC test (Hydroxyl Radical Absorption Capacity). Peroxynitrite Radicals are tested in the NORAC test (Peroxynitrite Radical Absorption Capacity). Superoxide Radicals are measured in the SOD test (Superoxide Radical Absorption Capacity). […] The result is expressed as micromoles of caffeic acid equivalent per liter (CAE/L) for liquid formulations and caffeic acid equivalent per gram (CAE/g) for dry powders.

[6] = NORAC (Brunswick Test # A105); assay type: biochemical; conditions: for NORAC SCORE: Cantron oral liquid scores converted from TE/L to TE/g
Description: Peroxyl radical scores are measured in the ORAC test (Oxygen Radical Absorption Capacity). Hydroxyl Radicals are tested in the HORAC test (Hydroxyl Radical Absorption Capacity). Peroxynitrite Radicals are tested in the NORAC test (Peroxynitrite Radical Absorption Capacity). Superoxide Radicals are measured in the SOD test (Superoxide Radical Absorption Capacity). Applicant's compounds and compositions were tested by the NORAC test (Brunswick test # A 105), which measures the activity of a given antioxidant against peroxynitrite radicals. NORAC tests were based on the method of Chung H. et al (2001) Journal Agricultural of Food Chemistry, 49: 3614-3621. Scores are expressed in micromoles of trolox equivalent per liter (TE/L) for liquid formulations and Trolox equivalent per gram (TE/g) for dry powders.

[7] = SORAC (Brunswick Test # A106); assay type: biochemical; conditions: for SOD SCORE: Cantron oral liquid scores converted from unitsSODeq/L to unitsSODeq/g
Description: Peroxyl radical scores are measured in the ORAC test (Oxygen Radical Absorption Capacity). Hydroxyl Radicals are tested in the HORAC test (Hydroxyl Radical Absorption Capacity). Peroxynitrite Radicals are tested in the NORAC test (Peroxynitrite Radical Absorption Capacity). Superoxide Radicals are measured in the SOD test (Superoxide Radical Absorption Capacity). Applicant's compounds and compositions were tested by the SORAC test (Brunswick test #106), which measures the activity of a given antioxidant against Superoxide radicals. The tests were conducted based on the method of Zhao et al (1999) Journal of Agricultural and Food Chemistry, (1999), 47: 2537-2543. The calibration standard was SOD and was expressed as a unit SOD equivalent per liter (unitsSODeq/L) for liquid formulations and unit SOD equivalent per gram (unitsSODeq/g) for dry powders.

[8] = tested on: H125 Lung Cancer; test: IC50 assay (concentration-cell number study); assay type: cell-based
Description: (§2) These cells are grown in 5 ml culture medium (RPMI-1640+15% Bovine Calf serum containing 1% penicillin-streptomycin, and 1% Glutamine) at 37° C. and 5% CO2 at a starting concentration of 5×10^4 cells/T25 flask. On day 3, cells are exposed to different concentrations of the drug. Flasks are incubated for 120 h (5 d) in a 5% CO2 incubator at 37° C. and the cells harvested with trypsin, washed once with Hanks Balanced Salt Solution (HBSS) and re-suspended in HBSS containing 0.08% Trypan Blue. Both viable and dead cells are counted using a hemocytometer. Viable cell numbers are normalized to an untreated control and plotted as a function of drug concentration. The IC50 value is determined using Prism 4.0.
(§3) Cell Lines utilized in IC50 Assays: HCT-116 human colon cancer cells, H125 Lung Cancer, MCF-7, Breast Cancer, MDA-235 Breast Cancer, LNCaP Prostate Cancer, OVAR-5 Ovarian Cancer, U251N Brain Cancer Sarcoma 180, Panc 01Pancreatic Cancer, CCRF-CEM Leukemia, HEP-G2 Liver Cancer, L1210 Leukemia, Colon 38 Colon Cancer.

[9] = tested on: MCF-7 Breast Cancer; test: IC50 assay (concentration-cell number study); assay type: cell-based
Description: (§4) Concentration-cell number studies (IC50 assay) were carried out utilizing 12 separate compositions (numbered 1-12 below) against 13 different cancer cell lines (see Table 6). These cells are grown in 5 ml culture medium (RPMI-1640+15% Bovine Calf serum containing 1% penicillin-streptomycin, and 1% Glutamine) at 37° C. and 5% CO2 at a starting concentration of 5×10^4 cells/T25 flask. On day 3, cells are exposed to different concentrations of the drug. Flasks are incubated for 120 h (5 d) in a 5% CO2 incubator at 37° C. and the cells harvested with trypsin, washed once with Hanks Balanced Salt Solution (HBSS) and re-suspended in HBSS containing 0.08% Trypan Blue. Both viable and dead cells are counted using a hemocytometer. Viable cell numbers are normalized to an untreated control and plotted as a function of drug concentration. The IC50 value is determined using Prism 4.0.

[10] = tested on: MDA-235 Breast Cancer; test: IC50 assay (concentration-cell number study); assay type: cell-based; conditions: for IC50: 120 h exposure
Description: as §4

[11] = tested on: LNCaP Prostate Cancer; test: IC50 assay (concentration-cell number study); assay type: cell-based; conditions: for IC50: 120 h exposure
Description: as §4

[12] = tested on: OVAR-5 Ovarian Cancer; test: IC50 assay (concentration-cell number study); assay type: cell-based; conditions: for IC50: 120 h exposure
Description: as §4

[13] = tested on: U251N Brain Cancer; test: IC50 assay (concentration-cell number study); assay type: cell-based; conditions: for IC50: 120 h exposure
Description: as §4

[14] = tested on: Sarcoma 180; test: IC50 assay (concentration-cell number study); assay type: cell-based; conditions: for IC50: 120 h exposure
Description: as §4

[15] = tested on: Panc 01 Pancreatic Cancer; test: IC50 assay (concentration-cell number study); assay type: cell-based; conditions: for IC50: 120 h exposure
Description: as §4

[16] = tested on: CCRF-CEM Leukemia; test: IC50 assay (concentration-cell number study); assay type: cell-based; conditions: for IC50: 120 h exposure
Description: as §4

[17] = tested on: HEP-G2 Liver Cancer; test: IC50 assay (concentration-cell number study); assay type: cell-based
Description: as §4

[18] = tested on: L1210 Leukemia; test: IC50 assay (concentration-cell number study); assay type: cell-based; conditions: for IC50: 120 h exposure
Description: as §4

[19] = tested on: Colon 38 Colon Cancer; test: IC50 assay (concentration-cell number study); assay type: cell-based; conditions: for IC50: 120 h exposure
Description: as §2, §3

[20] = tested on: 13 different cancer cell lines; test: IC50 assays, average or range over all cell lines; assay type: cell-based
Description: as §2, §3

[21] = tested on: HCT-116 human colon cancer cells; test: Clonogenic dose response; assay type: cell-based
Description: Clonogenic survival of the cells was measured by a standard tissue culture procedure.
Asimicin was prepared in ethanol. Clonogenic survival of the cells was measured by a standard tissue culture procedure.

[22] = in vivo; cited from earlier work
[23] = Homo sapiens, HCT-116, 120 h, HCT-116, 120 h exposure, read-out: IC50

O=C(O)CCCCC1CCSS1 (stereo not drawn) [Alpha-lipoic acid, reference compound]
IC50 [1, 23]: > 100 mg/L

O=c1c(O)c(O)c(=O)c1=O [Croconic Acid]
TOTAL ORAC SCORE [2]: 1,106 micromoles TE/g
ORAC hydro SCORE [3]: 1,106 micromoles TE/g
ORAC lipo SCORE [4]: 0 micromoles TE/g
HORAC SCORE [5]: 19 micromoles CAE/g
NORAC SCORE [6]: 1 micromoles TE/g
SOD SCORE [7]: 0 unitsSODeq/g

Oc1ccccc1O [Composition 2, Catechol]
TOTAL ORAC SCORE [2]: 73,161 micromoles TE/g
more effective than Cantron NM ([2]; Peroxyl-total score ratio): The Catechol composition is 1702%
ORAC hydro SCORE [3]: 48,479 micromoles TE/g
more effective than the improved Cantron ASV ([3]; Peroxyl-hydro score ratio): is still 507% more effective than
ORAC lipo SCORE [4]: 24,682 micromoles TE/g
more effective than the improved Cantron ASV ([4]; Peroxyl-lipo score ratio): is still 4086.4% more effective
HORAC SCORE [5]: 5,572 micromoles CAE/g
more effective than Cantron NM ([5]; Hydroxyl score ratio): 2,079% more effective than
NORAC SCORE [6]: 2,593 micromoles TE/g
more effective than the improved Cantron ASV ([6]; Peroxynitrite score ratio): is still 409.63% more effective
SOD SCORE [7]: 159,000 unitsSODeq/g
more effective than the improved Cantron ASV ([7]; Superoxide score ratio): is still 441.66% more effective
IC50 times lower than Cantron (times more efficacious than Cantron) ([1]; HCT-116): 7.04 times lower than
calculated cytotoxicity value of catechol ([1]; HCT-116, Cantron score 19.7 multiplied by 12.7% catechol by weight): 2.5019 µg/mL
IC50 [1, 23]: 2.8 mg/L (≈ 25.4 µM)
IC50 ([1]; Homo sapiens, HCT-116, read-out: calculated cytotoxicity value of catechol, HCT-116, Cantron score 19.7 multiplied by 12.7% catechol by weight): 2.5 mg/L (≈ 22.7 µM)
IC50 times lower than Cantron (times more efficacious than Cantron) [8]: 14.29 times lower than
IC50 ([8]; Homo sapiens, NCI-H125, 120 h exposure, read-out: IC50): 2.1 mg/L (≈ 19.1 µM)
IC50 times lower than Cantron (times more efficacious than Cantron) [9]: 11.36 times lower than
IC50 ([9]; 120 h exposure): to 2.2 μg/ml). It is
IC50 ([9]; Homo sapiens, MCF7, 120 h exposure, read-out: IC50): 2.2 mg/L (≈ 20 µM)
IC50 times lower than Cantron (times more efficacious than Cantron) [10]: 9.33 times lower than
IC50 ([10]; read-out: IC50): 3 mg/L (≈ 27.2 µM)
IC50 times lower than Cantron (times more efficacious than Cantron) [11]: 18.82 times lower than
IC50 ([11]; Homo sapiens, read-out: IC50): 1.7 mg/L (≈ 15.4 µM)
IC50 times lower than Cantron (times more efficacious than Cantron) [12]: 3.69 times lower than
IC50 ([12]; read-out: IC50): 3.2 mg/L (≈ 29.1 µM)
IC50 times lower than Cantron (times more efficacious than Cantron) [13]: 10.45 times lower than
IC50 ([13]; read-out: IC50): 2.2 mg/L (≈ 20 µM)
IC50 times lower than Cantron (times more efficacious than Cantron) [14]: 12.11 times lower than
IC50 ([14]; Mus musculus, read-out: IC50): 1.9 mg/L (≈ 17.3 µM)
IC50 times lower than Cantron (times more efficacious than Cantron) [15]: 14.71 times lower than
IC50 ([15]; read-out: IC50): 1.7 mg/L (≈ 15.4 µM)
IC50 times lower than Cantron (times more efficacious than Cantron) [16]: 6.19 times lower than
IC50 ([16]; Homo sapiens, read-out: IC50): 2.1 mg/L (≈ 19.1 µM)
IC50 times lower than Cantron (times more efficacious than Cantron) [17]: 4.61 times lower than
IC50 ([17]; Homo sapiens, HepG2, 120 h exposure, read-out: IC50): 2.6 mg/L (≈ 23.6 µM)
IC50 times lower than Cantron (times more efficacious than Cantron) [18]: 10.52 times lower than
IC50 ([18]; Mus musculus, read-out: IC50): 1.9 mg/L (≈ 17.3 µM)
IC50 times lower than Cantron (times more efficacious than Cantron) [19]: 11.36 times lower than
IC50 ([19]; read-out: IC50): 2.2 mg/L (≈ 20 µM)
IC50 ([20]; average of 13 cell lines): 2.3 mg/L (≈ 20.9 µM)
times more efficacious than Cantron ([20]; average over the cell lines tested): 10.35 times
clonogenic survival ([21]; 24 h exposure, 10 micrograms/ml): 0.1
effect on clonogenic survival ([21]; 24 h exposure, concentrations up to 1 microgram/ml): no effect
effect on the survival of the tumor cells ([21]; concentration of up to 10 micrograms/ml, exposure time not given): no effect
concentration with cell survival at the 0.1 level ([21]; extended exposure 168 h): 200 picograms/ml
known side effects in animal tests [22]: stomach irritation and hyperplasia

N.N.[Cl][Pt][Cl] [cis-Platinum, reference compound]
IC50 ([1]; HCT-116, 120 h exposure): 0.10 mg/L

Vitamin E [reference compound]
IC50 ([1]; HCT-116, 120 h exposure): >100 mg/L

O=C1C(O)=C(O)C(=O)C(O)=C1O [Composition 4, tetrahydroxy-1,4-quinone]
TOTAL ORAC SCORE [2]: 1,508 micromoles TE/g
ORAC hydro SCORE [3]: 1,507 micromoles TE/g
ORAC lipo SCORE [4]: 1 micromoles TE/g
HORAC SCORE [5]: 129 micromoles CAE/g
NORAC SCORE [6]: 438 micromoles TE/g
SOD SCORE [7]: 145,000 unitsSODeq/g
IC50 ([1]; HCT-116, 120 h exposure): 17.0 mg/L (≈ 98.8 µM)
IC50 ([1]; HCT-116, 120 h exposure, listed as 4): 17 mg/L (≈ 98.8 µM)
IC50 ([8]; 120 h exposure): 53 mg/L (≈ 308 µM)
IC50 ([9]; 120 h exposure): 5.9 mg/L (≈ 34.3 µM)
IC50 [10]: 5.8 mg/L (≈ 33.7 µM)
IC50 [11]: 54 mg/L (≈ 314 µM)
IC50 [12]: 28 mg/L (≈ 163 µM)
IC50 [13]: 8.0 mg/L (≈ 46.5 µM)
IC50 [14]: 51 mg/L (≈ 296 µM)
IC50 [15]: 24 mg/L (≈ 139 µM)
IC50 [16]: 7.0 mg/L (≈ 40.7 µM)
IC50 ([17]; 120 h exposure): 8.5 mg/L (≈ 49.4 µM)
IC50 [18]: 49 mg/L (≈ 285 µM)
IC50 [19]: 19 mg/L (≈ 110 µM)
IC50 AVG. ([20]; average of 13 cell lines): 25 mg/L (≈ 145 µM)

CC(=O)O[C@H]1C(=O)[C@@]2(C)[C@H]([C@H](OC(=O)c3ccccc3)[C@]3(O)C[C@H](OC(=O)[C@H](O)[C@@H](NC(=O)c4ccccc4)c4ccccc4)C(C)=C1C3(C)C)[C@]1(OC(C)=O)CO[C@@H]1C[C@@H]2O [Taxol, reference compound]
IC50 [1, 23]: 0.0002 mg/L (≈ 0.000234 µM)

Reference: patent publication US8669292B2, “Therapeutic formulation” (Orion Therapeutics, LLC, priority 2005, dated 2014)
